From the OligoGym collection
Values joined by “and” are separate entries in the source; they are usually repeats but may differ in a detail not shown here. Equal entries are not always repeated. After the bases stand the sugars from the 5' end (letter, count) and the backbone: PS all phosphorothioate, else s phosphorothioate and o phosphodiester by linkage. Methylation of C is not given here. e = 2'-O-(2-methoxyethyl) (MOE); k = constrained ethyl (cEt); d = 2'-deoxy (DNA)

Molecular target: IRF4
Conditions: ASO

Sequence	target mRNA inhibition (MM.1R, 1 µM)	target mRNA inhibition (SK-MEL-28, 4 µM)	other results
TTGGTTGGCTGGTCTT (sugars kkddddddddddkeke, PS)	27%		
ACTGACTAACAGGGAG (sugars k3 d10 k3, PS)		49%	
TGCTTCAACACACTGT (sugars k3 d10 k3, PS)		3%	
AATGTGTATTACTCTT (sugars kkdddddddddekeke, PS)	24% and 30%		
ATGTTAGCCAATTCCT (sugars kkdddddddddkekek, PS)	28% and 44%		
AAGCGAGTCAGACAGT (sugars k3 d10 k3, PS)	-22%		
TAGAGGAATGGCGGAT (sugars k3 d10 k3, PS)		45%	
ACCAAATTCCCGGAGG (sugars k3 d10 k3, PS)		7%	
AGGAACAAGTGTATCT (sugars k3 d10 k3, PS)		46%	
CCCAGTCTACTGCTGT (sugars k3 d10 k3, PS)		66%	
ACCCAGAAGTACGAGC (sugars k3 d10 k3, PS)		21%	
TGGAGAAGTCCCGTGG (sugars k3 d10 k3, PS)	-9%		
GGTAGTAGACCACAGT (sugars k3 d10 k3, PS)	23%		
GTTGGCTGGTCTTTGT (sugars kddddddddddkekek, PS)	23%		
GTGGCATCATGTAGTT (sugars k3 d10 k3, PS)		27%	
GTCAACATACACATAG (sugars k3 d10 k3, PS)		58%	
CTTTAGCCCATGCTCC (sugars k3 d10 k3, PS)		20%	
AATAAAGACCTTAACC (sugars k3 d10 k3, PS)		11%	
GGTGTGTAAGGTCTGA (sugars k3 d10 k3, PS)		41%	
ATGATGTATACCAACG (sugars k3 d10 k3, PS)		86%	

Sequence	target mRNA inhibition (MM.1R, 1 µM)	target mRNA inhibition (SK-MEL-28, 4 µM)	other results
GTTGGCACAATTCTCT (sugars k3 d10 k3, PS)	22% and 16%		
TCCCGGAGGAAGTCCC (sugars k3 d10 k3, PS)		30%	
TACATTGAGGCATACA (sugars k3 d10 k3, PS)		41%	
CCACAGTTGAACCCAT (sugars k3 d10 k3, PS)		36%	
TGATAGCTGAGCTGAT (sugars kdddddddddkekeke, PS)	17%		
TATCCATGTTGCATGG (sugars k3 d10 k3, PS)		61%	
AGTATGAGAAACGGCC (sugars e1 k2 d9 k2 e2, PS)	12%		
TGTATCATGCATACCA (sugars k3 d10 k3, PS)	3%		
GGACGAACGCGCAAAA (sugars k3 d10 k3, PS)		35%	
TTCATGTAAAGTCTGC (sugars kkdddddddddkdkdk, PS)	14% and 35%		
ACATAAAGGACCCCGC (sugars k3 d10 k3, PS)		28%	
AATAAGCAGAAACAGC (sugars k3 d10 k3, PS)		-1%	
TTACAGCATCTAAGGC (sugars k3 d10 k3, PS)		21%	
AGCTTAGTTATCTGGG (sugars k3 d10 k3, PS)		54% and 59%	
CGACACGCGCCGCTCG (sugars k3 d10 k3, PS)			target mRNA inhibition (MM.1R, 0.0625 µM): -6%; target mRNA inhibition (MM.1R, 0.25 µM): -10%; target mRNA inhibition (MM.1R, 4 µM): -13%
GTGTGTGCACTCGCGC (sugars k3 d10 k3, PS)	19%		
TCTGAGTAGACTTCTT (sugars k3 d10 k3, PS)	14%		
TGCTTGAGGTTTTCCT (sugars kdddddddddkekeke, PS)	9%		
GAATGGCGCATAGGTC (sugars k3 d10 k3, PS)	26%		
AAGCAAGTGGAGGTCT (sugars k3 d10 k3, PS)		51%	

Sequence	target mRNA inhibition (MM.1R, 1 µM)	target mRNA inhibition (SK-MEL-28, 4 µM)	other results
ACAGGACCTGGTCCAG (sugars k4 d8 k4, PS)		7%	
TGATATTAGAGACTGT (sugars k3 d10 k3, PS)		60%	
GCCTTGGACGGCCCCG (sugars k3 d10 k3, PS)		23%	
TTTCATAGCTAGTTCA (sugars k3 d10 k3, PS)		56%	
CACTGAGGCCTTAATG (sugars k3 d10 k3, PS)		34%	
CCACCTCCATTCTAAC (sugars k3 d10 k3, PS)		-15%	
CAAGACAGGTCTCTAC (sugars k3 d10 k3, PS)		34%	
AACAGATAGTTAAGTA (sugars k3 d10 k3, PS)		19%	
ACGTGTGCTTGCCAAG (sugars kddddddddddkekek, PS)	47% and 37%		
GTCATGGGACATTGGT (sugars k3 d10 k3, PS)	26%		
GCTGTCGATCTGGTCG (sugars k4 d8 k4, PS)		6%	
GTGTGGCTGATCCGGG (sugars k3 d10 k3, PS)		27%	
AGGTAAGGGCCCCGTG (sugars k3 d10 k3, PS)		47%	
CCCCAAGGCTACAGGC (sugars k3 d10 k3, PS)		25%	
AGTTAAGGTGCCTCAA (sugars k3 d10 k3, PS)		-1%	
GCTTCCCGTTGCCGCA (sugars k3 d10 k3, PS)		18%	
TGCTTGAGGTTTTCCT (sugars e1 k2 d9 k2 e2, PS)	35%		
GGAGAATTAAGAAGAC (sugars k3 d10 k3, PS)		32%	
AAAACAGTAAGAGGGC (sugars k3 d10 k3, PS)		39%	
GTGAACATGCCACTCA (sugars k3 d10 k3, PS)		62%	
